Results as given in ChEMBL document CHEMBL1153302, “Synthesis and biological evaluation on novel analogs of 9-methylstreptimidone, an inhibitor of NF-kappaB” (Bioorg Med Chem Lett, 2009).
In brackets after ≈: the same amount, converted by molar mass. Activity calls are given as the source filed them. The rule behind the calls is not given here.

What was measured:
RAW264.7 [1] = experiment: Cytotoxicity against mouse RAW264.7 cells by MTT colorimetric assay in presence of LPS; type: functional; details: read-out: ED50 (the source's name)
[2] = Inhibition of NF-kappaB in LPS-induced mouse RAW264.7 cells assessed as inhibition of NO production after 24 hrs; type: cell-based
RAW264.7 [3] = experiment: Inhibition of NF-kappaB in LPS-induced mouse RAW264.7 cells assessed as inhibition of iNOS expression after 24 hrs; type: cell-based
T-cell = experiment: Induction of apoptosis in T cell leukemia; type: functional, cell-based
Jurkat = experiment: Induction of apoptosis in human Jurkat cells; type: functional, cell-based
[4] = Mus musculus, RAW264.7, 24 h, read-out: IC50

Row | IC50 [2, 4] | Compound | EC50 (RAW264.7 [1]) | Activity (RAW264.7 [3]) | Activity (T-cell) | Activity (Jurkat) | IC50 ([2]; raw264.7)
1 | 15 µg/mL (≈ 55.3 µM) | CCCCCCSC(=O)CC1CC(=O)NC(=O)C1 | > 30 µg/mL |  |  |  | 
2 | 30 µg/mL (≈ 118 µM) | CC(C)(C)OC(=O)/C=C/CC1CC(=O)NC(=O)C1 | > 30 µg/mL |  |  |  | 
3 | > 30 µg/mL | O=C(O)CC1CC(=O)NC(=O)C1 | > 30 µg/mL |  |  |  | 
4 | > 30 µg/mL | CCCCCCCCCCCCNC(=O)CC1CC(=O)NC(=O)C1 | 25 µg/mL |  |  |  | 
5 |  | C/C=C\C(C)=C\[C@@H](C)C(=O)C[C@H](O)CC1CC(=O)NC(=O)C1 |  | Active | Active | Active | Active
6 | 3 µg/mL (≈ 8.26 µM) | O=C1CC(C/C=C/C(=O)c2cccc(OCc3ccccc3)c2)CC(=O)N1 | 8 µg/mL |  |  |  | 
7 | > 30 µg/mL | CCCCCCOC(=O)CC1CC(=O)NC(=O)C1 | > 30 µg/mL |  |  |  | 
8 | > 30 µg/mL | CCCCCCCCCCCCOC(=O)CC1CC(=O)NC(=O)C1 | > 30 µg/mL |  |  |  | 
9 | 2 µg/mL (≈ 5.41 µM) | CCCCCCCCCCCCSC(=O)CC1CC(=O)N(C)C(=O)C1 | 8 µg/mL |  |  |  | 
10 | > 30 µg/mL | O=C1CC(CC(=O)NC2CCCCC2)CC(=O)N1 | > 30 µg/mL |  |  |  | 
11 | 2 µg/mL (≈ 5.21 µM) | CCCCCCCCCCCCSC(=O)CC1CC(=O)N(CC)C(=O)C1 | 20 µg/mL |  |  |  | 
12 | > 30 µg/mL | CCCCCCNC(=O)CC1CC(=O)NC(=O)C1 | > 30 µg/mL |  |  |  | 
13 | 1 µg/mL (≈ 2.81 µM) | CCCCCCCCCCCCSC(=O)CC1CC(=O)NC(=O)C1 | 15 µg/mL |  |  |  | 
